The test system of experiment [1] is Jurkat E6-1 cells and Jurkat HXBc2 cells expressing HIV-1 HXBc2 Rev and ENV proteins. It is filed as cell-based. The conditions noted are these: for IC50: read-out: IC50 in cell-cell fusion inhibition assay; for IC50 (nM) In cell-cell fusion assay: Table 4.
Experimental: Jurkat E6-1 cells were from Dr. Arthur Weiss (Weiss A et al. 1984, J. Immunol. 133; 123-8), and Jurkat HXBc2 (4) cells expressing HIV-1 HXBc2 Rev and ENV proteins were from Dr. Joseph Sodroski (Cao, J. et al. 1996, J. Virol. 70; 1340-54). Cells were cultured every 3 to 4 days, and maintained in RPMI-1640 supplemented with the appropriate antibiotics at 37° C. with 5% CO2 in a humidified incubator. For ENV expression, Jurkat HXBc2 (4) cells were transferred to medium without tetracycline three days prior to the experiments. […] Cell-Cell Fusion Inhibition Assay—The protocol utilizing Jurkat E6-1 and Jurkat HXBc2 cells for a cell-cell fusion assay was previously described (Huerta L. et al. 2002, Cytometry, 47; 100-6. In short, Jurkat E6-1 and Jurkat HXBc2 cells were labeled with DiI and DiD lypophilic fluorescent probes, respectively. The two cell populations were co-incubated for 6 h in a ratio of 1:1 in the presence of different concentrations of the inhibitory peptides. Cells that co-incubated without the presence of peptides served as an optimal fusion reference. Unlabeled cells that were handled similarly served as an intrinsic fluorescence control. Cells labeled separately with DiI or DiD were used to compensate for the optimal separation of fluorescent signals. Jurkat HXBc2 cells labeled with DiI were co-incubated with Jurkat HXBc2 cells labeled with DiD for a fusion background that was subtracted from the measurements of the experiment. The following alterations were applied to the original protocol: (i) 5 ul of a 1 mg/ml DiI or DiD solution in dimethylsulfoxide (DMSO) was added to 1 ml of 5×10^6 cells/ml Jurkat E6-1 or Jurkat HXBc2 cells, respectively. (ii) Data from 150,000 events for each sample were collected on FACSort, upgraded to a FACSCalibur cell analyzer (Becton Dickinson), and further analyzed. Fitting of the data points was performed according to the equation derived from Hills' equation:
A further experiment relates to HIV-1 HXB2. The format is cell-based. Particulars: Table 5. The method, then:
For the fitting, we uploaded the X and Y values of the raw data (after subtracting the background) into a nonlinear least squares regression (curve fitter) program that provided the IC50 value (A of the equation), as well as the c value. Virus Infectivity Assay—Fully infectious HIV-1 HXB2 concentrated virus stock was a kind gift of the AIDS Vaccine Program, SAIC. Experiments were done according to a P3 biological safety level. The infectivity of HIV-1 HXB2 was determined using the TZM-bl cell line as a reporter. Cells were added (2×10^4 cells/well) to a 96-well clear-bottomed microtiter plate with 10% serum supplemented Dulbecco's modified eagle medium (DMEM). Plates were incubated at 37° C. for 18-24 hours to allow the cells to adhere. The media was then aspirated from each well and replaced with serum free DMEM containing 40 micrograms/mL DEAE-dextran. […] Luciferase activity was analyzed using the Steady-Glo Luciferase assay kit (Promega, Madison Wis.). […] IC50 Values were calculated from the fitted curve similarly to the cell-cell fusion assay. […] The eight different possible combinations (triple, NBD, DiI, DiD, NBD+DiI, NBD+DiD, DiI+DiD, no label) were defined in the analysis software and the percentage of each one was calculated. The percentage of NBD labeling (peptide) on all cell types in relation to all available labeled cells in the system was calculated. […]

A further experiment relates to HIV-1LAI. The conditions noted are these: blocked infection of target cells; cited from earlier work.

Residues, ends and D or L forms follow the SMILES beside them. No end group written: not given here. *: point of attachment. Palmitoyl = CCCCCCCCCCCCCCCC(=O)*; C16 = C16 lipid

In the case of `CCCCCCCCCCCCCCCC(=O)N[C@@H](CO)C(=O)NCC(=O)N[C@H](C(=O)N[C@@H](CC(=O)O)C(=O)N[C@@H](CCC(N)=O)C(=O)N[C@@H](CCC(=O)O)C(=O)N[C@@H](CCC(N)=O)C(=O)N[C@@H](CC(N)=O)C(=O)N[C@@H](CC(N)=O)C(=O)N[C@@H](CC(C)C)C(=O)N[C@H](C(=O)N[C@@H](CCCNC(=N)N)C(=O)N[C@@H](CC(C)C)C(=O)N[C@H](C(=O)N[C@@H](CCC(=O)O)C(=O)N[C@@H](C)C(=O)N[C@@H](CCC(N)=O)C(=O)N[C@H](C(=O)N[C@@H](Cc1c[nH]cn1)C(=O)N[C@@H](CCC(=O)O)C(=O)N[C@@H](CC(C)C)C(=O)N[C@@H](CCC(N)=O)C(=O)N[C@@H](CC(C)C)C(=O)N[C@H](C(=O)N[C@@H](CCC(N)=O)C(=O)N[C@@H](Cc1c[nH]c2ccccc12)C(=O)N[C@@H](CCCCN)C(=O)N[C@H](C(=O)N[C@@H](CCCCN)C(=O)N[C@@H](CCC(N)=O)C(=O)N[C@@H](CC(C)C)C(=O)N[C@@H](CC(C)C)C(=O)N[C@@H](C)C(=O)N[C@@H](CCCNC(=N)N)C(=O)N[C@H](C(=O)N[C@@H](CC(C)C)C(=O)N[C@@H](CCCCN)C(N)=O)[C@@H](C)CC)[C@@H](C)CC)[C@@H](C)O)[C@@H](C)CC)[C@@H](C)CC)[C@@H](C)O)[C@@H](C)CC` [C16-N36 MUTe,g] (Palmitoyl-SGIDQEQNNLTRLIEAQIHELQLTQWKIKQLLARILK-NH2), the IC50 – broadly, the point on the concentration scale where inhibition reaches its midpoint – in experiment [1] stood at 162 ± 4 nM. Turning to `CC[C@H](C)[C@H](NC(=O)CNC(=O)[C@@H](N)CO)C(=O)N[C@@H](CC(=O)O)C(=O)N[C@@H](CCC(N)=O)C(=O)N[C@@H](CCC(=O)O)C(=O)N[C@@H](CCC(N)=O)C(=O)N[C@@H](CC(N)=O)C(=O)N[C@@H](CC(N)=O)C(=O)N[C@@H](CC(C)C)C(=O)N[C@H](C(=O)N[C@@H](CCCNC(=N)N)C(=O)N[C@@H](CC(C)C)C(=O)N[C@H](C(=O)N[C@@H](CCC(=O)O)C(=O)N[C@@H](C)C(=O)N[C@@H](CCC(N)=O)C(=O)N[C@H](C(=O)N[C@@H](Cc1c[nH]cn1)C(=O)N[C@@H](CCC(=O)O)C(=O)N[C@@H](CC(C)C)C(=O)N[C@@H](CCC(N)=O)C(=O)N[C@@H](CC(C)C)C(=O)N[C@H](C(=O)N[C@@H](CCC(N)=O)C(=O)N[C@@H](Cc1c[nH]c2ccccc12)C(=O)N[C@@H](CCCCN)C(=O)N[C@H](C(=O)N[C@@H](CCCCN)C(=O)N[C@@H](CCC(N)=O)C(=O)N[C@@H](CC(C)C)C(=O)N[C@@H](CC(C)C)C(=O)N[C@@H](C)C(=O)N[C@@H](CCCNC(=N)N)C(=O)N[C@H](C(=O)N[C@@H](CC(C)C)C(=O)N[C@@H](CCCCN)C(N)=O)[C@@H](C)CC)[C@@H](C)CC)[C@@H](C)O)[C@@H](C)CC)[C@@H](C)CC)[C@@H](C)O` [N36 MUTe,g, reference compound] (H-SGIDQEQNNLTRLIEAQIHELQLTQWKIKQLLARILK-NH2; N-terminus assumed), in experiment [1], the half-maximal inhibitory concentration (IC50) amounted to 936 ± 36 nM. `CCCCCCCCCCCCCCCC(=O)NCCCC[C@H](NC(=O)[C@H](CC(C)C)NC(=O)[C@@H](NC(=O)[C@H](CCCNC(=N)N)NC(=O)[C@H](C)NC(=O)[C@H](CC(C)C)NC(=O)[C@H](CC(C)C)NC(=O)[C@H](CCC(N)=O)NC(=O)[C@H](CCCCN)NC(=O)[C@@H](NC(=O)[C@H](CCCCN)NC(=O)[C@H](Cc1c[nH]c2ccccc12)NC(=O)[C@H](CCC(N)=O)NC(=O)[C@@H](NC(=O)[C@H](CC(C)C)NC(=O)[C@H](CCC(N)=O)NC(=O)[C@H](CC(C)C)NC(=O)[C@H](CCC(=O)O)NC(=O)[C@H](Cc1c[nH]cn1)NC(=O)[C@@H](NC(=O)[C@H](CCC(N)=O)NC(=O)[C@H](C)NC(=O)[C@H](CCC(=O)O)NC(=O)[C@@H](NC(=O)[C@H](CC(C)C)NC(=O)[C@H](CCCNC(=N)N)NC(=O)[C@@H](NC(=O)[C@H](CC(C)C)NC(=O)[C@H](CC(N)=O)NC(=O)[C@H](CC(N)=O)NC(=O)[C@H](CCC(N)=O)NC(=O)[C@H](CCC(=O)O)NC(=O)[C@H](CCC(N)=O)NC(=O)[C@H](CC(=O)O)NC(=O)[C@@H](NC(=O)CNC(=O)[C@@H](N)CO)[C@@H](C)CC)[C@@H](C)O)[C@@H](C)CC)[C@@H](C)CC)[C@@H](C)O)[C@@H](C)CC)[C@@H](C)CC)C(N)=O` [N36 MUTe,g-C16] (H-SGIDQEQNNLTRLIEAQIHELQLTQWKIKQLLARILK(Palmitoyl)-NH2): the 50% inhibitory concentration (IC50) in experiment [1] stood at 8.8 ± 4 nM. For the compound `CCCCCCCCCCCCCCCC(=O)NCCCC[C@H](NC(=O)[C@H](CCC(N)=O)NC(=O)[C@H](CC(C)C)NC(=O)[C@H](CCC(=O)O)NC(=O)[C@H](Cc1c[nH]cn1)NC(=O)[C@@H](NC(=O)[C@H](CCC(N)=O)NC(=O)[C@H](C)NC(=O)[C@H](CCC(=O)O)NC(=O)[C@@H](NC(=O)[C@H](CC(C)C)NC(=O)[C@H](CCCNC(=N)N)NC(=O)[C@@H](NC(=O)[C@H](CC(C)C)NC(=O)[C@H](CC(N)=O)NC(=O)[C@H](CC(N)=O)NC(=O)[C@H](CCC(N)=O)NC(=O)[C@H](CCC(=O)O)NC(=O)[C@H](CCC(N)=O)NC(=O)[C@H](CC(=O)O)NC(=O)[C@@H](NC(=O)CNC(=O)[C@H](CO)NC(=O)[C@H](CC(C)C)NC(=O)[C@H](CC(C)C)NC(=O)[C@H](CCC(N)=O)NC(=O)[C@@H](N)CCCNC(=N)N)[C@@H](C)CC)[C@@H](C)O)[C@@H](C)CC)[C@@H](C)CC)C(N)=O` [Sh-RQLL-Mut e,g-C16] (H-RQLLSGIDQEQNNLTRLIEAQIHELQK(Palmitoyl)-NH2; N-terminus assumed), in experiment [1], the “IC50 (nM) In cell-cell fusion assay” value was “Not active”.

For the compound “C16-HQTLSGIDQEQNNLTRLIEAQIHELQ (C16-HQTLSGIDQEQNNLTRLIEAQIHELQ-NH2) [C16-Sh-Mut e,g]”, in experiment [1], the “IC50 (nM) In cell-cell fusion assay” value is recorded as “Not active”. Moreover, in the experiment on HIV-1 HXB2 (read-out: IC50 (nM) In virus-cell fusion assay), the half-inhibitory concentration (IC50) was found to be 643 ± 137 nM. With “C16-RQLLSGIDQEQNNLTRLIEAQIHELQ (C16-RQLLSGIDQEQNNLTRLIEAQIHELQ-NH2) [C16-Sh-RQLL-Mut e,g]”, the “IC50 (nM) In cell-cell fusion assay” value in experiment [1] is recorded as “Not active”. Take HQTLSGIDQEQNNLTRLIEAQIHELQ [Sh-Mut e,g]: in experiment [1], the “IC50 (nM) In cell-cell fusion assay” value is listed as “Not active”. In the experiment with HIV-1 HXB2, the “IC50 (nM) In virus-cell fusion assay” value was “Not active”.

For “HQTLSGIDQEQNNLTRLIEAQIHELQ-C16 [Sh-Mut e,g-C16]”, in experiment [1], the “IC50 (nM) In cell-cell fusion assay” value was “Not active”. For “RQLLSGIDQEQNNLTRLIEAQIHELQ [Sh-RQLL-Mut e,g]”, the “IC50 (nM) In cell-cell fusion assay” value in experiment [1] is “Not active”.

As to “SGIVQQLNNQLRAEEANQHLEQLSVWGSKQNQARRLK(δ-NH) [N36 MUTa,d, reference compound]”, the “IC50 in cell-cell fusion inhibition assay” value in experiment [1] was “inactive”. Further, in experiment [1] (cell-cell fusion assay, Table 3, N36 mutated peptides), the “IC50 nM” value is “Not active”.

For enfuvirtide, in the experiment on HIV-1LAI, the “EC50 against HIV-1LAI” value was 0.5 ng/mL.

Source of the values: US20120028887A1, “L[…] HIV-1” (priority 2009, published 2012).
